Experiment: in vitro
Settings: human, hek293t cells
Method: Mammalian cytotoxicity measurement was performed using Cell Titer-Glo 2.0 Cell Viability Assay (Promega, G9243) according to the manufacturer protocol. In brief, mammalian cells were seeded into 384-well white plates (Greiner, 781080) and incubated at 37°C for one day. Compounds from the Cys-Library were dispensed into the assay plate using epMotion 96. The plates were then incubated at 37°C for two days. An equal volume of Cell Titer-Glo 2.0 reagent was added into each well of the assay plate using epMotion 96 and incubated at 22°C for 10 min, followed by luminescence measurement using a Cytation 5 plate reader (BioTek).

Row | SMILES | viability at 48 h, 25 µM
1 | C=CC(=O)Nc1cnn(-c2ccccc2C)c1C(F)F [1-E22, N-[5-(difluoromethyl)-1-(2-methylphenyl)-1H-pyrazol-4-yl]prop-2-enamide] | 116%
2 | CC(Cl)C(=O)N(Cc1nc(C2CCCCCC2)no1)C1CC1 (centres unmarked) [7-E05, 2-chloro-N-[(3-cycloheptyl-1,2,4-oxadiazol-5-yl)methyl]-N-cyclopropylpropanamide] | 78.1%
3 | C=CC(=O)Nc1cnc(C2CCCC2)nc1 [1-G17, N-(2-cyclopentylpyrimidin-5-yl)prop-2-enamide] | 33%
4 | CC(Cl)C(=O)NC1(c2nnc[nH]2)CCC1 (centres unmarked) [6-F21, 2-chloro-N-[1-(4H-1,2,4-triazol-3-yl)cyclobutyl]propanamide] | 87.6%
5 | C=CCNC(=O)C(C#N)=Cc1c(C)nn(-c2ccc(F)cc2)c1Cl [9-L07, 3-[5-chloro-1-(4-fluorophenyl)-3-methyl-1H-pyrazol-4-yl]-2-cyano-N-(prop-2-en-1-yl)prop-2-enamide] | 91.8%
6 | N#Cc1cccc(NC2CCN(C(=O)CCl)C2)c1 (centres unmarked) [5-I22, 3-{[1-(2-chloroacetyl)pyrrolidin-3-yl]amino}benzonitrile] | 2.25%
7 | NC(=O)CSc1ccccc1NC(=O)CCl [4-A15, 2-{[2-(2-chloroacetamido)phenyl]sulfanyl}acetamide] | 1.71%
8 | C=CC(=O)Nc1ccc(C)cc1S(=O)(=O)N1CCOCC1 [1-O13, N-[4-methyl-2-(morpholine-4-sulfonyl)phenyl]prop-2-enamide] | 74.9%
9 | Cc1cc(C=C(C#N)C(=O)Nc2ccncc2)c(C)n1C1CC1 [8-K14, 2-cyano-3-(1-cyclopropyl-2,5-dimethyl-1H-pyrrol-3-yl)-N-(pyridin-4-yl)prop-2-enamide] | 71.6%
10 | O=C(CCl)NCC1(c2ccc3c(c2)OCCO3)CCCC1 [4-I11, 2-chloro-N-{[1-(2,3-dihydro-1,4-benzodioxin-6-yl)cyclopentyl]methyl}acetamide] | 0.867%
11 | Cc1ccccc1N1C(=O)CSC1=C(C#N)C(=O)N1CCCCC1 [8-B12, 2-[3-(2-methylphenyl)-4-oxo-1,3-thiazolidin-2-ylidene]-3-oxo-3-(piperidin-1-yl)propanenitrile] | 113%
12 | C=CC(=O)N1CCC(C(=O)N2CCCC2COC)CC1 (centres unmarked) [2-E12, 1-{4-[2-(methoxymethyl)pyrrolidine-1-carbonyl]piperidin-1-yl}prop-2-en-1-one] | 116%
13 | C=CC(=O)N1CCCc2c(OCC(N)=O)cccc21 [3-D22, 2-{[1-(prop-2-enoyl)-1,2,3,4-tetrahydroquinolin-5-yl]oxy}acetamide] | 95.2%
14 | CCCCNC(=O)C(C#N)=Cc1c(Cl)nc2ccccn12 [9-O09, N-butyl-3-{2-chloroimidazo[1,2-a]pyridin-3-yl}-2-cyanoprop-2-enamide] | 129%
15 | CCS(=O)(=O)c1ccc(NC(=O)CCl)c(O)c1 [4-P21, 2-chloro-N-[4-(ethanesulfonyl)-2-hydroxyphenyl]acetamide] | 73.2%
16 | Cc1cc(C=C(C#N)C(=O)Nc2cn[nH]c2)c(C)n1-c1ccc(F)cc1 [9-N07, 2-cyano-3-[1-(4-fluorophenyl)-2,5-dimethyl-1H-pyrrol-3-yl]-N-(1H-pyrazol-4-yl)prop-2-enamide] | 95.1%
17 | O=C(CCl)NCC(c1ccccc1)c1c[nH]c2ccccc12 (centres unmarked) [6-C08, 2-chloro-N-[2-(1H-indol-3-yl)-2-phenylethyl]acetamide] | 0.717%
18 | C=CC(=O)N(Cc1cccs1)C1CCc2cnn(C(C)C)c2C1 (centres unmarked) [1-L15, N-[1-(propan-2-yl)-4,5,6,7-tetrahydro-1H-indazol-6-yl]-N-[(thiophen-2-yl)methyl]prop-2-enamide] | 82.3%
19 | CC(C)CNC(=O)c1ccccc1NC(=O)CCl [4-E04, 2-(2-chloroacetamido)-N-(2-methylpropyl)benzamide] | 0.855%
20 | C=CC(=O)NCCc1nc(-c2ccccc2)nn1C [2-M12, N-[2-(1-methyl-3-phenyl-1H-1,2,4-triazol-5-yl)ethyl]prop-2-enamide] | 87.7%
21 | COc1cccc2cc(C=C(C#N)C(=O)Nc3ccc(C)cc3)oc12 [9-A17, 2-cyano-3-(7-methoxy-1-benzofuran-2-yl)-N-(4-methylphenyl)prop-2-enamide] | 89%
22 | Cc1cccc(N(Cc2ccccc2)C(=O)CCl)c1 [6-O07, N-benzyl-2-chloro-N-(3-methylphenyl)acetamide] | 0.964%
23 | C=CC(=O)NCc1ccc(C(=O)N2CCCC23CCOC3=O)cc1 (centres unmarked) [3-I06, N-[(4-{6-oxo-7-oxa-1-azaspiro[4.4]nonane-1-carbonyl}phenyl)methyl]prop-2-enamide] | 88.5%
24 | N#CC(=Cc1ccc2c(c1)OCCO2)C(=O)Nc1ccc(F)cc1 [9-K20, 2-cyano-3-(2,3-dihydro-1,4-benzodioxin-6-yl)-N-(4-fluorophenyl)prop-2-enamide] | 114%
25 | N#CC(=Cc1cc(F)ccc1F)C(=O)Nc1ccc(F)cc1F [8-C10, 2-cyano-N-(2,4-difluorophenyl)-3-(2,5-difluorophenyl)prop-2-enamide] | 91.2%

Row | SMILES | viability at 48 h, 25 µM
26 | C=CC(=O)Nc1cc2c(cc1Sc1ccccc1)OCCO2 [1-M13, N-[7-(phenylsulfanyl)-2,3-dihydro-1,4-benzodioxin-6-yl]prop-2-enamide] | 82.4%
27 | C=CC(=O)N1CCC(C(=O)NCCC2CCS(=O)(=O)C2)CC1 (centres unmarked) [2-H05, N-[2-(1,1-dioxo-1lambda6-thiolan-3-yl)ethyl]-1-(prop-2-enoyl)piperidine-4-carboxamide] | 78.2%
28 | CC(=O)N1c2ccc(C(=O)CCl)cc2CC1C (centres unmarked) [10-I20, 1-(1-acetyl-2-methyl-2,3-dihydro-1H-indol-5-yl)-2-chloroethan-1-one] | 3.53%
29 | N#CC(=Cc1cnn(CCCl)c1)C(=O)NC1CCCCC1 [9-A16, 3-[1-(2-chloroethyl)-1H-pyrazol-4-yl]-2-cyano-N-cyclohexylprop-2-enamide] | 109%
30 | COc1ccc2cc(C=C(C#N)C(=O)NCc3ccccc3)ccc2c1 [9-D07, N-benzyl-2-cyano-3-(6-methoxynaphthalen-2-yl)prop-2-enamide] | 108%
31 | CC(Cl)C(=O)NC(C)(C)c1ccc(F)cc1F (centres unmarked) [6-E21, 2-chloro-N-[2-(2,4-difluorophenyl)propan-2-yl]propanamide] | 93.5%
32 | CN(C)C(=O)c1csc(C(=O)CCl)c1 [10-I07, 5-(2-chloroacetyl)-N,N-dimethylthiophene-3-carboxamide] | 56.6%
33 | C=CC(=O)N1CCC(C(=O)NCc2nccn2-c2ccccc2)CC1 [3-B03, N-[(1-phenyl-1H-imidazol-2-yl)methyl]-1-(prop-2-enoyl)piperidine-4-carboxamide] | 86.5%
34 | COc1ccc(-n2c(C)c(C)c(C#N)c2NC(=O)CCl)cc1 [4-F20, 2-chloro-N-[3-cyano-1-(4-methoxyphenyl)-4,5-dimethyl-1H-pyrrol-2-yl]acetamide] | 0.583%
35 | C=CC(=O)NCCC(=O)N1CC[S+]([O-])C(C)(C)CC1 (centres unmarked) [3-O17, N-[3-(7,7-dimethyl-1-oxo-1lambda4,4-thiazepan-4-yl)-3-oxopropyl]prop-2-enamide] | 58.5%
36 | O=C(CCl)NC1CCN(C(=O)COc2ccccc2)C1 (centres unmarked) [7-L03, 2-chloro-N-[1-(2-phenoxyacetyl)pyrrolidin-3-yl]acetamide] | 0.757%
37 | CC(C#N)Oc1ccc(C=C(C#N)C(=O)Nc2ccccc2Cl)cc1 (centres unmarked) [9-E05, N-(2-chlorophenyl)-2-cyano-3-[4-(1-cyanoethoxy)phenyl]prop-2-enamide] | 111%
38 | C=CC(=O)N1CCOC(c2ccc(F)c(C)c2)C1 (centres unmarked) [3-A09, 1-[2-(4-fluoro-3-methylphenyl)morpholin-4-yl]prop-2-en-1-one] | 38.4%
39 | O=C(CCl)N1C[C@@H]2C[C@H]1CN2c1ccccc1 [5-E22, 2-chloro-1-[(1S,4S)-5-phenyl-2,5-diazabicyclo[2.2.1]heptan-2-yl]ethan-1-one] | 0.453%
40 | CN(C1CCCCC1)S(=O)(=O)c1ccc(NC(=O)CCl)cc1 [5-E03, 2-chloro-N-{4-[cyclohexyl(methyl)sulfamoyl]phenyl}acetamide] | -0.149%
41 | C=CC(=O)NC1CCN(c2nc(C3CC3)cc(C(F)(F)F)n2)CC1 [1-L03, N-{1-[4-cyclopropyl-6-(trifluoromethyl)pyrimidin-2-yl]piperidin-4-yl}prop-2-enamide] | 108%
42 | Cn1nnc(CN(C(=O)CCl)C2CCCCCCC2)n1 [5-A16, 2-chloro-N-cyclooctyl-N-[(2-methyl-2H-1,2,3,4-tetrazol-5-yl)methyl]acetamide] | 0.784%
43 | O=C(CCl)NCCOc1cccc(F)c1 [6-G03, 2-chloro-N-[2-(3-fluorophenoxy)ethyl]acetamide] | 97.9%
44 | C=CC(=O)N(C)CC(=O)NC1CCCN(c2ccc(F)cc2F)C1=O (centres unmarked) [2-P22, N-({[1-(2,4-difluorophenyl)-2-oxopiperidin-3-yl]carbamoyl}methyl)-N-methylprop-2-enamide] | 24.4%
45 | C=CC(=O)N1CCN(Cc2ncon2)CC1 [3-I16, 1-{4-[(1,2,4-oxadiazol-3-yl)methyl]piperazin-1-yl}prop-2-en-1-one] | 106%
46 | N#CC(=Cc1cccc(F)c1)C(=O)Nc1ccc(SC(F)F)cc1 [9-N17, 2-cyano-N-{4-[(difluoromethyl)sulfanyl]phenyl}-3-(3-fluorophenyl)prop-2-enamide] | 103%
47 | CC(Cl)C(=O)NC(C)c1ncn(C)n1 (centres unmarked) [6-P13, 2-chloro-N-[1-(1-methyl-1H-1,2,4-triazol-3-yl)ethyl]propanamide] | 112%
48 | CC(Cl)C(=O)NC(=O)NC1CCS(=O)(=O)C1 (centres unmarked) [4-J13, 3-(2-chloropropanoyl)-1-(1,1-dioxo-1lambda6-thiolan-3-yl)urea] | 94.7%
49 | CN(C)c1ccc(C=C(C#N)C(=O)NCc2ccco2)cc1 [9-D10, 2-cyano-3-[4-(dimethylamino)phenyl]-N-[(furan-2-yl)methyl]prop-2-enamide] | 101%
50 | C=CC(=O)NC(c1ccc(F)cc1)C1CC1 (centres unmarked) [3-H20, N-[cyclopropyl(4-fluorophenyl)methyl]prop-2-enamide] | 89.2%

Source: publication PMC11995724, “Antibiotic target discovery by integrated phenotypic and activity-based profiling of electrophilic fragments” (Cell chemical biology, 2025)
